The test system of assay [1] is phospho-EGFR (Tyr1068). Description: phospho-EGFR immunostaining of brain sections, H1650-BrM model. It is filed as in vivo, immunodeficient mice. Conditions: osimertinib 5 mg/kg/day vs vehicle.
Description: FIG. 9D: Brain sections from mice injected with H1650-BrM cells described in FIG. 8g-h were immunostained using an antibody against phospho-EGFR (Tyr1068). […] Mice were then euthanized, and brain tissues were subsequently processed for histological analysis. Representative images of immunohistochemical staining for phospho-EGFR in brain sections are shown. Dotted lines surround the location of metastatic cells in the brain. Scale bars, 100 μm.
FIG. 9E: The pEGFR-stained brain sections from the H1650-derived model described in panel (d) were quantitated using automated Qu-Path software to count pEGFR-positive cancer cells that were identified by setting a threshold for signal intensity (1+). Data are represented as mean values±SEM.
Assay [2] relates to PC9-Tr-BrM cells. Description: PC9-Tr-BrM (osimertinib-refractory) brain metastasis mouse model, vehicle or osimertinib. Conditions: PC9-Tr-BrM-injected mice, osimertinib vs vehicle. It is filed as in vivo, immunodeficient mice. How it is done: FIG. 1E: Kaplan-Meier plot for brain-metastasis-progression-free survival of mice injected with PC9-Tr-BrM cells followed by treatment with either vehicle or osimertinib. Data were analyzed using the log-rank test: χ2=1.325, d.f.=1, p-value not significant (ns), n=20 for vehicle-treated mice and 17 for osimertinib-treated mice.
Mice were euthanized at 7 weeks post tumor-cell injection. Scale bars, 200 μm.
To understand the underlying mechanisms of brain relapse using this model, we isolated brain metastatic cells from the relapsed brain of osimertinib-treated mice and designated them PC9-Tr-BrM (Treated Brain Metastatic, FIG. 1d).

Assay [3] has as its system phospho-EGFR (Tyr1068), phospho-ERK (Thr202/Tyr204). Conditions: PC9-BrM and PC9-Tr-BrM, 6 hours post-treatment, similar in both.
Description: Antibodies against phospho-EGFR (Tyr1068), phospho-ERK (Thr202/Tyr204), total-EGFR, total-ERK and □-actin (loading control) were used. Data are representative of three independent experiments.
The subject of assay [4] is H1650-Tr-BrM cells. Description: H1650-Tr-BrM brain metastasis mouse model, vehicle or osimertinib. In kind it is in vivo, immunodeficient mice. Conditions: H1650-Tr-BrM-injected mice. How it is done: . Data were analyzed using the log-rank test: χ2=2.541, d.f.=1, p-value not significant (ns), n=6 for vehicle-treated mice, and n=4 for osimertinib-treated mice.
. Arrow points to the location of metastatic cells in the brain. Mice were euthanized at 60 days post tumor-cell injection. Scale bars, 200 μm.
FIG. 8H: Quantitative analysis of the percentage of brain tissue sections covered by metastasis from the experiment described in panel (g). […]; We then isolated brain metastatic cells from the osimertinib-treated mice (designated H1650-Tr-BrM), injected them into the arterial circulation of naive immunodeficient mice and treated the mice with either vehicle or osimertinib.

The subject of a further assay is EGFR-mutant lung cancer. Conditions: cited from earlier work.
For assay [5], the system named is phospho-EGFR (Tyr1068), phospho-ERK. The note with it: H1650-BrM and H1650-Tr-BrM, 6 hours post treatment, similar in both.
Description: Antibodies against phospho-EGFR (Tyr1068), phospho-ERK, total-EGFR, total-ERK and β-actin (loading control) were used. Data are representative of three independent experiments.
In assay [6] the test system is phospho-EGFR (Tyr1068). Description: phospho-EGFR immunostaining of brain sections, PC9-BrM model. It is filed as in vivo, immunodeficient mice. The note with it: osimertinib 5 mg/kg/day vs vehicle.
Description: FIG. 2B: Brain sections from mice injected with PC9-BrM cells described in FIG. 1a-b were immunostained using an antibody against phospho-EGFR (Tyr1068). […] The endpoint for vehicle-treated mice was two months post tumor-cell injection (“Vehicle”). The endpoint for osimertinib-treated mice was 4 months post tumor-cell injection for micrometastases (“Micromet”) and 8 months post tumor-cell injection for relapsed metastatic lesion (“Relapsed Met”). For the osimertinib treatment group, mice were administered osimertinib by oral gavage. At 6 hours post treatment, mice were euthanized, and brain tissues were subsequently processed for histological analysis. Representative images of immunohistochemical staining for phospho-EGFR in brain sections are shown. Arrows point to, and dotted line surrounds, the location of metastatic cells in the brain.
FIG. 2C: The pEGFR-immunostained brain sections described in panel (b) were quantitated using automated Qu-Path software to count pEGFR-positive cancer cells that were identified by setting a threshold for signal intensity (1+).
Assay [7] relates to RAR target gene STRA6. Description: STRA6 expression by qRT-PCR in H1650-Tr-BrM cells. Conditions: two days; for inhibition of retinol-induced STRA6 expression: 5 μM retinol and 5 μM antagonist. It is filed as cell-based, human. How it is done: (§1) FIG. 13A-FIG. 13B: STRA6 expression was determined by qRT-PCR analysis of Tr-BrM cells from the PC9 model (13(a)) and H1650 model (13(b)), which were treated with either DMSO, retinol or retinol plus different retinoic acid receptor antagonists. Cells were cultured for two days in serum-free RPMI medium with DMSO alone, with 5 μM retinol alone, or medium with both 5 μM retinol and 5 μM antagonists (either the RAR-α antagonist BMS-195614, the RAR-γ antagonist MM-11253, or the pan-RAR antagonist AGN-194310). After two days of culturing, cells were washed and collected for RNA analysis. GAPDH was measured as an internal control. […] For the PC9 model in 13(a), n=8 for vehicle; n=5 for retinol; n=3 for retinol plus the RAR-alpha inhibitor (“RAR-α-inh.”); n=3 for retinol plus the RAR-gamma inhibitor (“RAR-γ-inh.”); n=4 for retinol plus the pan-RAR inhibitor (“pan-RAR-inh.”). For the H1650 model in 13(b), n=7 for all groups.

Assay [8] concerns RAR target gene STRA6. Description: STRA6 expression by qRT-PCR in PC9-Tr-BrM cells. In kind it is cell-based, human. The note with it: two days; for inhibition of retinol-induced STRA6 expression: 5 μM retinol and 5 μM antagonist. How it is done: as §1
A general note: Quantitative PCR measures a nucleic acid by following its amplification.

Another assay concerns HCC4006. Description: Cell viability assay, sensitivity to pan-RAR inhibition, HCC4006. The note with it: HCC4006, lacks S100A9 and ALDH1A1 expression. In kind it is cell-based, human. How it is done: (§2) FIG. 13C: Cell viability assay for comparing in-vitro sensitivity of the indicated cell lines to pan-RAR-inhibition (AGN194310, abbreviated as “AGN”). Cell viability values are normalized to the vehicle (DMSO)-treated control, presented as the mean values±SEM, and representative of three independent experiments. P-values were determined by two-way ANOVA with Tukey's test.

The subject of the next assay is PC9-derivatives. Description: Lung orthotopic (intrathoracic) implantation, PC9-derivatives, AGN194310 treatment. It is filed as in vivo, mice. Conditions: PC9-derived, directly implanted in the lung, treated 2 weeks.
Assay [9] deals with PC9-Tr-BrM cells. Description: Treatment of PC9-Tr-BrM brain metastasis in mice with AGN194310 and/or osimertinib. The note with it: 0.5 mg/kg body weight/day, five days per week from day 25 to 7 weeks, vs vehicle and osimertinib alone.
The subject of assay [10] is H1650-Tr-BrM cells. Description: Treatment of H1650-Tr-BrM brain metastasis in mice with AGN194310 and/or osimertinib. Conditions: 0.5 mg/kg body weight/day, five days per week from day 25 to 7 weeks, vs vehicle and osimertinib alone.
For another assay, the system named is H1650-derivatives. Description: Lung orthotopic (intrathoracic) implantation, H1650-derivatives, AGN194310 treatment. The note with it: H1650-derived, directly implanted in the lung, treated 2 weeks. In kind it is in vivo, mice. As to the method:
FIG. 12K: Schematic representation of the experimental protocol for lung orthotopic injections. H1650-Tr-BrM-lung derivatives stably expressing either Lenti-Con, S100A9i, ALDH1A1i, or S100A9i plus ALDH1A1 o/e were injected in the lung (intrathoracic injections, labeled as “lung orthotopic injection” in the figure). Mice were euthanized at 21 days post tumor-cell injection for analysis.
FIG. 13P-FIG. 13Q: Violin plots depicting normalized photon flux of lung measured by bioluminescence imaging of mice. […] For panel (p): n=8 for Veh, and n=11 for Pan-RARi. For panel (q): n=7 for Veh, and n=8 for Pan-RARi.

The next assay deals with H1975. Description: Cell viability assay, sensitivity to pan-RAR inhibition, H1975. In kind it is cell-based, human. The note with it: H1975, lacks S100A9 and ALDH1A1 expression. As to the method: as §2
[11] abbreviates: serum-free media, 5 μM retinol alone vs DMSO.

Regarding `C=CC(=O)Nc1cc(Nc2nccc(-c3cn(C)c4ccccc34)n2)c(OC)cc1N(C)CCN(C)C` [osimertinib], in the assay on phospho-EGFR (Tyr1068) [1], the “p-EGFR in brain metastatic lesions” value was “significantly reduced”. For the same compound, the figures for the brain-metastasis-progression-free survival result with PC9-Tr-BrM cells [2] and in the assay with H1650-Tr-BrM cells [4] (osimertinib vs vehicle) were “no longer increased” and “no longer prolonged”, respectively. Besides, the “inhibition of EGFR and ERK phosphorylation” value in assay [3] and in assay [5] was “dose-dependent inhibition” throughout. Besides, in the assay on H1650-Tr-BrM cells [4] (vehicle or osimertinib), the “mice with rapid progression to the brain” value was 100%. The “median progression-free survival (PFS)” value with EGFR-mutant lung cancer (first-line treatment, EGFR-mutant metastatic lung cancer patients) was 18.9 months. In addition, the “patients with CNS progression” value with EGFR-mutant lung cancer (lung cancer patients treated with osimertinib) is reported as 20%. Also, the “p-EGFR in micro- and relapsed-metastatic brain lesions” value with phospho-EGFR (Tyr1068) [6] is given as “significantly reduced”.
retinal: the STRA6 expression entry in the assay with RAR target gene STRA6 [7] (setting [11]) and in the assay with RAR target gene STRA6 [8] (setting [11]) was “significantly induced” each time.
For `CC1(C)CCC(C)(C)c2cc(C3(c4ccc5cc(C(=O)O)ccc5c4)SCCS3)ccc21` [MM11253], the “inhibition of retinol-induced STRA6 expression” value with RAR target gene STRA6 [7] and in the assay with RAR target gene STRA6 [8] was “only modestly inhibited” in each case.
Consider `CC1(C)CC=C(c2cnc3ccccc3c2)c2cc(C(=O)Nc3ccc(C(=O)O)cc3)ccc21` [BMS195614], for which the “inhibition of retinol-induced STRA6 expression” value in the assay on RAR target gene STRA6 [7] and in the assay with RAR target gene STRA6 [8] was “only modestly inhibited” throughout.
Turning to `CCc1ccc(C2=CC(C)(C)Sc3ccc(C#Cc4ccc(C(=O)O)cc4)cc32)cc1` [AGN-194310], the loss of viability result in the assay on HCC4006 and with H1975 was “did not show dose-dependent loss of viability” each time. The “lung lesions (normalized photon flux)” value with PC9-derivatives and in the assay with H1650-derivatives was “modestly reduced” throughout. The “brain metastasis (bioluminescence imaging and CK7 metastasis surface area)” value with PC9-Tr-BrM cells [9] and with H1650-Tr-BrM cells [10] was “striking reduction” each time. For the same compound, the “inhibition of retinol-induced STRA6 expression” value in the assay on RAR target gene STRA6 [7] and in the assay on RAR target gene STRA6 [8] was “dramatically reduced” each time.

These data come from patent US20250381183A1, “TARGETING S100A9-ALDH1A1-RETINOIC ACID SIGNALING TO SUPPRESS BRAIN RELAPSE IN EGFR-MUTANT LUNG CANCER” (The Trustees of Columbia University in the City of New York, priority 2022, published 2025).
